Legend:
Experiment in all cases: Bliss excess, mean over the matrix (fraction); higher = more synergy
MPP-89 (Mesothelioma) = system: MPP-89 (Mesothelioma)
Outline: (§1)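 Cell lines in DMEM/F12 or RPMI with 10% FBS were plated in 1536-well plates, held 24 hours at 37°C, 5% CO2, then given two-drug dose matrices for 72 hours (DMSO typically 0.2%). Viability was read by CellTiter-Glo 2.0 luminescence and scaled as inhibition from 0 (vehicle wells) to 1 (blank wells). Combination Emax is the second-highest inhibition in the matrix; Bliss excess is observed combination effect minus expected EA + EB − EA·EB, EA and EB being single-agent effects.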

[1] = system: L-428 (Hodgkin's Lymphoma)
Outline: as §1

[2] = system: BE-13 (T-Lymphoblastic Leukemia)
Outline: as §1

[3] = system: NCI-H524 (Small Cell Lung Carcinoma)
Outline: as §1

[4] = system: FTC-133 (Thyroid Gland Carcinoma)
Outline: as §1

[5] = system: HuH-7 (Hepatocellular Carcinoma)
Outline: as §1

[6] = system: OVCAR-5 (Ovarian Carcinoma)
Outline: as §1

KS-1 (Glioblastoma) = system: KS-1 (Glioblastoma)
Outline: as §1

[7] = system: SW1573 (Lung Adenocarcinoma)
Outline: as §1

[8] = system: Hs-746T (Gastric Carcinoma)
Outline: as §1

[9] = system: LCLC-97TM1 (Non-Small Cell Lung Carcinoma)
Outline: as §1

[10] = system: OE21 (Esophageal Squamous Cell Carcinoma)
Outline: as §1

[11] = system: HuCCT1 (Biliary Tract Carcinoma)
Outline: as §1

[12] = system: ESS-1 (Other Solid Carcinomas)
Outline: as §1

LOXIMVI (Melanoma) = system: LOXIMVI (Melanoma)
Outline: as §1

[13] = system: SW1710 (Bladder Carcinoma)
Outline: as §1

[14] = system: CAL-33 (Oral Cavity Carcinoma)
Outline: as §1

[15] = system: WSU-NHL (B-Cell Non-Hodgkin's Lymphoma)
Outline: as §1

A673 (Ewing's Sarcoma) = system: A673 (Ewing's Sarcoma)
Outline: as §1

[16] = system: OV-56 (Ovarian Carcinoma)
Outline: as §1

Row | SMILES | Bliss excess (MPP-89 (Mesothelioma)) | Bliss excess [1] | Bliss excess [2] | Bliss excess [3] | Bliss excess [4] | Bliss excess [5] | Bliss excess [6] | Bliss excess (KS-1 (Glioblastoma)) | Bliss excess [7] | Bliss excess [8] | Bliss excess [9] | Bliss excess [10] | Bliss excess [11] | Bliss excess [12] | Bliss excess (LOXIMVI (Melanoma)) | Bliss excess [13] | Bliss excess [14] | Bliss excess [15] | Bliss excess (A673 (Ewing's Sarcoma)) | Bliss excess [16]
1 | CN(C)CCCOc1ccc(-c2ccc3ncc4c(c3c2)n(C2CCOCC2)c(=O)n4C)cn1 [AZD0156] + C=CCn1c(=O)c2cnc(Nc3ccc(N4CCN(C)CC4)cc3)nc2n1-c1cccc(C(C)(C)O)n1 [AZD1775] (first compound max 1 µM, partner max 1 µM) | -0.0513 | 0.0106 | -0.0329 | -0.0204 | -0.0416 | -0.0497 | -0.0043 | -0.0268 | -0.0423 | -0.0305 | -0.0179 | 0.0083 | -0.0382 | -0.124 | 0.0604 | -0.0205 | -0.0497 | -0.002 | 0.0342 | -0.0459
2 | Cn1cnc2c(F)c(Nc3ccc(Br)cc3Cl)c(C(=O)NOCCO)cc21 [Selumetinib] + CCN(CCO)CCCOc1ccc2c(Nc3cc(CC(=O)Nc4cccc(F)c4)[nH]n3)ncnc2c1 [AZD2811] (first compound max 10 µM, 7x7, partner max 1 µM) | -0.0325 | 0.0174 | -0.0213 | -0.0101 | -0.03 | -0.0164 | -0.0054 | -0.0324 | -0.0605 | -0.0051 | 0.0594 | 0.0238 | 0.0066 | -0.0617 | 0.012 | -0.0548 | -0.0215 | -0.0209 | -0.0233 | -0.0677
3 | NC1(C(=O)N[C@@H](CCO)c2ccc(Cl)cc2)CCN(c2ncnc3[nH]ccc23)CC1 [Capivasertib] + CCN(CCO)CCCOc1ccc2c(Nc3cc(CC(=O)Nc4cccc(F)c4)[nH]n3)ncnc2c1 [AZD2811] (first compound max 10 µM, 7x7, partner max 1 µM) | -0.0481 | 0.0098 | -0.0125 | 0.0113 | 0.0005 | -0.0168 | -0.0223 | 0.0374 | -0.0197 | -0.0265 | 0.0429 | 0.0098 | 0.0051 | 0.0203 | -0.0072 | -0.0507 | -0.0564 | -0.0697 | -0.0158 | -0.0077
4 | C=CCn1c(=O)c2cnc(Nc3ccc(N4CCN(C)CC4)cc3)nc2n1-c1cccc(C(C)(C)O)n1 [AZD1775] + O=C(c1cc(Cc2n[nH]c(=O)c3ccccc23)ccc1F)N1CCN(C(=O)C2CC2)CC1 [Olaparib] (first compound max 1 µM, partner max 10 µM) | -0.0018 | -0.0252 | -0.0409 | 0.0424 | -0.0645 | -0.0107 | -0.041 | -0.0097 | -0.0268 | -0.0594 | -0.0833 | -0.0216 | -0.0149 | -0.0316 | -0.0897 | -0.0299 | -0.0073 | -0.025 | 0.0042 | -0.0576
5 | CC(=O)c1c(C)c2cnc(Nc3ccc(N4CCNCC4)cn3)nc2n(C2CCCC2)c1=O [Palbociclib] + Cc1c2c(nn1C)CSCc1cc(n(C)n1)CSc1cc(c3ccccc3c1)OCCCc1c(C(=O)O)n(C)c3c-2c(Cl)ccc13 [AZD5991] (first compound max 10 µM, 7x7, partner max 1 µM) | -0.021 | -0.0554 | -0.0277 | 0.0019 | -0.0515 | -0.011 | -0.0406 | -0.0556 | -0.0431 | -0.0293 | -0.0149 | -0.0088 | -0.0461 | -0.0067 | -0.0325 | -0.0405 | 0.016 | -0.0269 | -0.0903 | -0.0824
6 | C=CCn1c(=O)c2cnc(Nc3ccc(N4CCN(C)CC4)cc3)nc2n1-c1cccc(C(C)(C)O)n1 [AZD1775] + C[C@@H]1COCCN1C2=NC(=NC(=C2)C3(CC3)[S@](=N)(=O)C)C4=C5C=CNC5=NC=C4 [AZD6738] (first compound max 1 µM, partner max 10 µM) | 0.0013 | 0.0246 | 0.0159 | 0.051 | 0.0508 | 0.0027 | 0.0146 | -0.0042 | 0.0334 | -0.0095 | -0.0323 | -0.0207 | -0.0205 | -0.015 | -0.0609 | 0.0811 | 0.0324 | 0.0013 | 0.0115 | 0.0141
7 | CN(CCO)CC[C@H](CSc1ccccc1)Nc1ccc(S(=O)(=O)NC(=O)c2ccc(N3CCC([C@@H](O)c4ccccc4-c4ccc(Cl)cc4)CC3)cc2)cc1S(=O)(=O)C(F)(F)F [AZD4320] + C[C@@H]1COCCN1C2=NC(=NC(=C2)C3(CC3)[S@](=N)(=O)C)C4=C5C=CNC5=NC=C4 [AZD6738] (first compound max 1 µM, 7x7, partner max 10 µM) | -0.0163 | -0.0103 | -0.0251 | -0.0467 | 0.0324 | -0.0144 | -0.0282 | 0.0082 | -0.0216 | -0.0021 | -0.0433 | 0.0053 | -0.0681 | -0.0296 | 0.0028 | -0.0455 | 0.0019 | -0.104 | 0.028 | -0.005
8 | Cc1c2c(nn1C)CSCc1cc(n(C)n1)CSc1cc(c3ccccc3c1)OCCCc1c(C(=O)O)n(C)c3c-2c(Cl)ccc13 [AZD5991] + Cc1cc2ncnn2cc1Nc1ncc2c(n1)n(C1CCOCC1)c(=O)n2C [AZD7648] (first compound max 1 µM, 7x7, partner max 10 µM) | 0.0158 | 0.0455 | 0.0066 | -0.016 | -0.0322 | -0.0408 | -0.0913 | -0.0797 | -0.0896 | -0.0784 | -0.0015 | -0.0387 | -0.032 | -0.0292 | 0.0193 | -0.0209 | -0.0341 | -0.0594 | -0.0515 | -0.0059
9 | NC1(C(=O)N[C@@H](CCO)c2ccc(Cl)cc2)CCN(c2ncnc3[nH]ccc23)CC1 [Capivasertib] + C[C@@H]1COCCN1C2=NC(=NC(=C2)C3(CC3)[S@](=N)(=O)C)C4=C5C=CNC5=NC=C4 [AZD6738] (first compound max 10 µM, 7x7, partner max 10 µM) | -0.0166 | -0.0004 | -0.0877 | -0.0086 | -0.042 | -0.0228 | -0.0357 | -0.0366 | -0.0915 | -0.0747 | -0.0607 | -0.0499 | -0.0335 | -0.0884 | -0.0014 | -0.0403 | -0.0246 | -0.05 | 0.0077 | -0.032
10 | COc1cccc(OCCCN)c1-c1cc(Nc2cnc(C#N)cn2)n[nH]1 [Prexasertib] + CN(C)CCCOc1ccc(-c2ccc3ncc4c(c3c2)n(C2CCOCC2)c(=O)n4C)cn1 [AZD0156] (first compound max 1 µM, 7x7, partner max 1 µM) | -0.0242 | -0.0144 | -0.0338 | -0.0435 | -0.0596 | -0.0335 | -0.0273 | -0.0131 | -0.0129 | -0.0078 | -0.0439 | -0.0949 | -0.0357 | -0.0668 | 0.0398 | -0.022 | -0.0018 | -0.0066 | 0.0133 | -0.0442
11 | COc1nnc2ccc(N3CCC(c4ccc(OCCN5CCN(C)C(=O)[C@H]5C)cc4)CC3)nn12 [AZD5153] + Cc1c2c(nn1C)CSCc1cc(n(C)n1)CSc1cc(c3ccccc3c1)OCCCc1c(C(=O)O)n(C)c3c-2c(Cl)ccc13 [AZD5991] (first compound max 1 µM, 7x7, partner max 1 µM) | -0.0399 | -0.023 | 0.0075 | 0.0723 | -0.0112 | 0.0546 | -0.043 | -0.0479 | -0.0366 | -0.0244 | -0.017 | -0.0089 | -0.0543 | 0.0032 | 0.0393 | -0.0389 | 0.0009 | 0.01 | 0.0041 | -0.0093
12 | Cc1c2c(nn1C)CSCc1cc(n(C)n1)CSc1cc(c3ccccc3c1)OCCCc1c(C(=O)O)n(C)c3c-2c(Cl)ccc13 [AZD5991] + Cn1cnc2c(F)c(Nc3ccc(Br)cc3Cl)c(C(=O)NOCCO)cc21 [Selumetinib] (first compound max 1 µM, 7x7, partner max 3 µM) | -0.0188 | 0.0018 | 0.0415 | -0.0129 | 0.0108 | -0.0361 | -0.0349 | -0.0456 | -0.0427 | -0.018 | 0.0506 | 0.0286 | 0.0339 | 0.0083 | 0.0256 | -0.0214 | 0.0814 | -0.0489 | 0.12 | 0.0034
13 | CC1(C)CCC(CN2CCN(c3ccc(C(=O)NS(=O)(=O)c4ccc(NCC5CCOCC5)c([N+](=O)[O-])c4)c(Oc4cnc5[nH]ccc5c4)c3)CC2)=C(c2ccc(Cl)cc2)C1 [Venetoclax] + COc1cc(Nc2ncc3c(n2)-c2ccc(Cl)cc2C(c2c(F)cccc2OC)=NC3)ccc1C(=O)O [Alisertib] (first compound max 1 µM, 7x7, partner max 10 µM) | -0.0556 | 0.0501 | -0.003 | -0.0902 | 0.0138 | -0.0508 | -0.0703 | 0.0145 | -0.0548 | 0.0096 | 0.0449 | 0.0433 | -0.0148 | 0.0748 | -0.0332 | -0.0425 | -0.0356 | -0.0521 | 0.198 | 0.001
14 | Cn1cnc2c(F)c(Nc3ccc(Br)cc3Cl)c(C(=O)NOCCO)cc21 [Selumetinib] + CC(C)n1c(=O)n(C)c2cnc3cc(F)c(-c4ccc(OCCCN5CCCCC5)nc4)cc3c21 [AZD1390] (first compound max 10 µM, 7x7, partner max 0.3 µM) | -0.069 | -0.0231 | -0.0283 | -0.0286 | -0.034 | -0.0205 | 0.0017 | -0.0384 | -0.0796 | -0.0257 | 0.0069 | 0.014 | 0.0231 | -0.0044 | -0.0098 | -0.059 | 0.0649 | -0.0059 | -0.0481 | -0.0526

Source: the supplement of paper PMC11061612
